# From PubChem BioAssay AID602210 (Sanford-Burnham Center for Chemical Genomics, 2012)
# Active and inactive are the calls of the source. How the calls were made is not given here.
# Assay: H9c2 cardiomyoblast viability modulators under 2-DG – cell-based, ATPlite luminescence, rat, set 2, myocardial damage modulator project, dose response (AID 602210)
# Conditions: H9c2 rat cardiomyoblasts, 2-deoxyglucose-induced death, 2 h
row,Compound,IC50
1,COc1ccc(OC)c(/C=N/NC(=O)c2cc3c(OC)c(OC)ccc3[nH]2)c1,8.62 µM
2,COc1cc(C(=O)N/N=C/c2ccc(OC(=O)c3ccccc3)c(OC)c2)ccc1O,14.8 µM (inactive)
3,C=CCOC(=O)C1=C[C@H](c2cn(C(C)=O)c3ccccc23)C[C@H](OCc2ccc(CO)cc2)O1,21.5 µM (inactive)
4,Cc1cccc(NC(=O)c2nc[nH]c2C(=O)NCCCNC(=O)c2[nH]cnc2C(=O)Nc2cccc(C)c2)c1,> 79 µM (inactive)
5,N#C/C(=C\c1cn(-c2ccccc2)nc1-c1cccnc1)c1nnc2n1CCCCC2,30.2 µM (inactive)
6,CCOC(=O)C(Cc1ccc(NC(=O)/C(=C/c2ccc(OC(C)=O)cc2)NC(C)=O)cc1)N1C(=O)c2ccccc2C1=O (centres undefined),15.6 µM (inactive)
7,COc1ccc(C=CC(=O)c2ccc3cc(OC)c(OC)cc3c2)cc1OC,11.7 µM (inactive)
8,COc1cccc(C(=O)CSc2nnc(-c3cc(OC)c(OC)c(OC)c3)o2)c1,> 79 µM (inactive)
9,O=CNc1cc(-c2ccc(C(=O)NC3CC3)cc2)cn2c(-c3ccccc3)cnc12,16.1 µM (inactive)
10,C=CCn1cnc2c(c1=O)c1nc3ccccc3nc1n2/N=C/c1cc(OC)c(OC)c(OC)c1,2.64 µM
11,COc1ccccc1-c1cc(NC=O)c2ncc(-c3cccc(C(C)=O)c3)n2c1,> 79 µM (inactive)
12,COc1ccc2c(c1OC)C(=O)N1c3ccccc3C(=O)N(c3ccccc3)C21 (centres undefined),8.7 µM
13,O=C(CN1C(=O)C2CC=CCC2C1=O)Nc1nc(-c2ccc(F)cc2)cs1 (centres undefined),> 79 µM (inactive)
14,CCN(C[C@H]1N[C@@](CC)(C(=O)OC)[C@H]2C(=O)N(Cc3ccccc3)C(=O)[C@@H]12)C(=O)c1ccc(C(C)(C)C)cc1,3.95 µM
15,COc1ccc(-c2ccc3c(c2)S(=O)(=O)c2cccc(C(=O)NC[C@@H]4CCCO4)c2C3=O)cc1OC,13.4 µM (inactive)
16,COc1ccc(CCNc2nc(-c3cccnc3)nc3ccccc23)cc1OC,8.24 µM
17,O=C(CSc1nnc(-c2ccccc2)n1Cc1ccccc1)NNC(=O)c1ccccc1O,> 79 µM (inactive)
18,Cc1nn(-c2ccccc2)c(C)c1/C=N/NC(=O)c1cc(C(C)(C)C)[nH]n1,44.7 µM (inactive)
19,Cc1cccc(NC(=O)c2cc(-c3ccco3)nc3ccccc23)n1,12.2 µM (inactive)
20,CCOC(=O)C1CCCN(C(=O)CCC(=O)Nc2ccc3nc(N4CCOCC4)cc(C)c3c2)C1 (centres undefined),38.8 µM (inactive)
21,COc1cc(NC(=O)c2csc(-c3ccncc3)n2)cc(C(=O)Nc2cccc(C(F)(F)F)c2)c1,7.25 µM
22,COC(=O)c1cc(NC(=O)c2cc3ccccc3o2)cc(C(=O)OC)c1,23.9 µM (inactive)
23,COc1cc(-c2cc(C(=O)NCc3ccco3)c3ccccc3n2)cc(OC)c1OC,16.4 µM (inactive)

row,Compound,IC50
1,COC(=O)c1cc(OC)c(OC)cc1NC(=O)c1ccc(C)o1,23.4 µM (inactive)
2,Nc1c(C(=O)N/N=C/c2cccnc2)oc2nc(-c3ccco3)cc(-c3ccco3)c12,1.63 µM
3,Cc1nc2ccccc2c2c(N)c3ccccc3n12,32.1 µM (inactive)
4,CCOCc1c(C(=O)NC2=Nc3ccccc3NC(CC)=C2C(=O)OCC)oc2ccccc12,4.85 µM
5,C=CC[C@@H](CC(=O)N[C@H](CO)Cc1ccccc1)C(=O)N[C@@H](COC(=O)[C@@H](CC=C)CC(=O)OC(C)(C)C)Cc1ccccc1,45.4 µM (inactive)
6,COc1cc(OC)cc(C(=O)Nc2ccc(-c3nc4ccccc4o3)cc2)c1,13.7 µM (inactive)
7,CC(=O)Nc1cccc(NC(=O)c2cc(-c3cccnc3)nc3ccc(Cl)cc23)c1,> 79 µM (inactive)
8,O=C(NCCN1CCOCC1)c1cnn2c(-c3ccccc3)cc(-c3ccccc3)nc12,30.8 µM (inactive)
9,COc1cccc(OC)c1C(=O)Nc1cc(C)nn1-c1nc2ccccc2[nH]1,4.52 µM
10,CN(C)C(=O)/C=C\c1cn(-c2ccccc2)nc1-c1ccc2c(c1)OCCO2,29.4 µM (inactive)
11,CCOc1ccccc1N1CC(O)=C(c2nc3ccccc3s2)C1=N,13.8 µM (inactive)
12,COc1cc(/C=C(\C#N)c2nc3ccc(C)cc3[nH]2)c([N+](=O)[O-])cc1OC,26.4 µM (inactive)
13,COc1ccccc1NC(=O)c1cc(-c2cc(OC)c(OC)c(OC)c2)nc2ccccc12,8.68 µM
14,COc1cc(C(=O)Nc2ccc(NC(=O)c3cccc(Cl)c3)nc2)cc(OC)c1OC,> 79 µM (inactive)
15,CC(=O)Nc1cc(-c2cccc(NS(C)(=O)=O)c2)cn2c(-c3cccc(C(C)=O)c3)cnc12,16.2 µM (inactive)
16,Cc1ccc(-c2nn3c(-c4ccco4)nnc3c3ccccc23)cc1S(=O)(=O)NCC1CCCO1 (centres undefined),27.1 µM (inactive)
17,NS(=O)(=O)c1ccc(CCNc2ccn3nc(-c4ccc(OCCN5CCOCC5)cc4)cc3n2)cc1,45.8 µM (inactive)
18,COc1cccc(/C=N/Nc2nc3ccccc3n3cnnc23)c1,3.49 µM
19,CCN(CC)C(=O)c1ccc2c3c(cccc13)C(=O)N(CCc1ccc(OC)c(OC)c1)C2=O,25 µM (inactive)
20,COc1cc(-c2cc3nc(NCCc4ccc(S(N)(=O)=O)cc4)ccn3n2)cc(OC)c1OC,15.6 µM (inactive)
21,COc1cc(-c2nnc(-c3cc(-c4ccccc4)nc4ccccc34)o2)cc(OC)c1OC,7.22 µM
22,COc1ccc(-n2cc(-c3ccccc3)c3c(N4CCOCC4)ncnc32)cc1,6.04 µM
23,COc1cc(-c2cc(NC(C)=O)c3ncc(-c4cc(OC)c(OC)c(OC)c4)n3c2)cc(OC)c1OC,9.01 µM

row,Compound,IC50
1,Cn1nc(C(=O)Nc2nc(-c3ccccn3)cs2)c2ccccc2c1=O,> 79 µM (inactive)
2,CN(C(=O)c1sc2nc(N3CCOCC3)c3c(c2c1N)CCCC3)c1ccccc1,9.97 µM
3,Cn1c(=O)c2[nH]c(NN=Cc3cccc(Br)c3)nc2n(C)c1=O,7.47 µM
4,COCCn1nnnc1CN(CCc1ccccc1)Cc1cc2cc(OC)ccc2[nH]c1=O,> 79 µM (inactive)
5,O=C(CN(c1ccc2c(c1)OCCO2)S(=O)(=O)c1ccccc1)Nc1ccc2c(c1)OCO2,14.7 µM (inactive)
6,CC(=O)Nc1cccc(NC(=O)c2cc(-c3cccnc3)nc3ccc(Br)cc23)c1,> 79 µM (inactive)
7,CC(C)c1ccccc1NC(=O)COC(=O)c1c2c(nc3ccccc13)CCN(Cc1ccccc1)C2,7.98 µM
8,O=C(COC(=O)c1c2c(nc3ccccc13)/C(=C/c1cccc([N+](=O)[O-])c1)CCC2)NC1CCS(=O)(=O)C1 (centres undefined),12.9 µM (inactive)
9,O=C(CNC(=O)c1nc[nH]c1C(=O)NCC(=O)OCc1ccccc1)OCc1ccccc1,0.953 µM
10,Cc1[nH]c2ccccc2c1/C=N/NC(=O)c1cc(-c2ccccc2)n[nH]1,8.98 µM
11,Cc1c(OCC(=O)NCCN2CCOCC2)ccc2c1oc(=O)c1ccccc12,17.1 µM (inactive)
12,CCOC(=O)C1CCN(c2cc3c(cc2NC(=O)c2ccccc2Cl)n(C)c(=O)n3C)CC1,15.2 µM (inactive)
13,COc1ccc(C(=O)COC(=O)Cn2[nH]c(=O)c3ccccc3c2=O)c(OC)c1,52.7 µM (inactive)
14,O=S(=O)(c1ccccc1)N1CCN(c2nc(-c3cccnc3)nc3ccccc23)CC1,12 µM (inactive)
15,O=C/C(=C\Nc1ccccn1)c1nc2cc(Cl)ccc2o1,> 79 µM (inactive)
16,COc1ccc(NC(=O)c2cc(-c3ccc(OC)c(OC)c3)nc3ccccc23)c(OC)c1,> 79 µM (inactive)
17,c1cc2[nH]snc2c2nc(C3CC3)nc12,10.6 µM (inactive)
18,COc1cc(C(=O)NCC(=O)N/N=C/c2ccc(-c3cccc([N+](=O)[O-])c3)o2)cc(OC)c1OC,17.5 µM (inactive)
19,COc1cc(C(=O)Nc2ccc(NC(=O)c3ccco3)nc2)cc(OC)c1OC,38.5 µM (inactive)
20,NC(=O)c1nsc(C(=O)N(c2ccccc2F)C(C(=O)NCc2ccccc2)c2ccc(O)cc2)c1N (centres undefined),3.04 µM
21,COc1cc(NC(=O)c2ccco2)c(OC)cc1NC(=O)c1cc(OC)c(OC)c(OC)c1,7.97 µM
22,COc1cc(OC)c(-c2nn3c(-c4ccco4)nnc3s2)cc1OC,9.15 µM
23,Cc1nn2c(-c3cccc(NC(=O)c4ccco4)c3)nnc2c2ccccc12,7.77 µM

row,Compound,IC50
1,COc1ccccc1CN(C(=O)CNC(=O)c1ccco1)C(C(=O)NCC1CCCO1)c1ccccc1 (centres undefined),9.47 µM
2,COc1ccc(-c2cc(C(=O)NC(C)c3ccccn3)c3ccccc3n2)cc1OC (centres undefined),13.4 µM (inactive)
3,COCc1c(C(=O)Nc2ccc3nc(N4CCOCC4)sc3c2)oc2ccccc12,15 µM (inactive)
4,COc1nc(N/N=C/c2cc3c(cc2Br)OCO3)nc(N2CCOCC2)n1,17.4 µM (inactive)
5,COc1cccc(-c2cnc3c(NC(C)=O)cc(-c4cccc(NS(C)(=O)=O)c4)cn23)c1,15.4 µM (inactive)
6,C[C@H](CO)N1C[C@H](C)[C@@H](CN(C)S(=O)(=O)c2cccs2)Oc2ccc(NC(=O)Nc3ccccc3)cc2C1=O,> 79 µM (inactive)
7,Cc1ccc(NC(=O)c2nc[nH]c2C(=O)NCCCNC(=O)c2[nH]cnc2C(=O)Nc2ccc(C)cc2)cc1,1.33 µM
8,COc1ccc(-n2nc(C(=O)NCC(=O)Nc3cc(OC)c(OC)c(OC)c3)c3ccccc3c2=O)cc1Cl,7.79 µM
9,O=C1N[C@H](Cc2ccccc2)COC(=O)[C@@H](Cc2ccc(F)cc2)C/C=C\C[C@H]1CC(=O)N(CCO)Cc1ccccc1,19.3 µM (inactive)
10,COc1cccc(Nc2nc3ccccc3n3cnnc23)c1,17.5 µM (inactive)
11,COc1ccc(CCCNC(=O)C2(C)Cc3c(-c4ccc(NC(C)=O)cc4)ccnc3O2)cc1 (centres undefined),12.5 µM (inactive)
12,CCOc1ccc(C(C(=O)NCC2CCCO2)N(C(=O)c2snc(C(N)=O)c2N)c2ccccc2F)cc1 (centres undefined),24 µM (inactive)
13,COc1ccc(-c2cc3nc(-c4ccccc4)cc(N4CCN(C(C)=O)CC4)n3n2)cc1,16.1 µM (inactive)
14,COc1ccc(N(Cc2cc3cc(OC)ccc3[nH]c2=O)C(=O)c2cccnc2)cc1,> 79 µM (inactive)
15,Cc1nnc2ccc(-c3cccc(NC(=O)c4ccc(Cl)nc4)c3)nn12,45.9 µM (inactive)
16,Cc1[nH]c2ccccc2c1/C=N/NC(=O)c1cc(-c2cccs2)[nH]n1,5.8 µM
17,COc1ccc(-c2cc(-c3ccc(O)cc3)nc(N)c2C#N)cc1OC,> 79 µM (inactive)
18,COC(=O)c1cc(NC(=O)Nc2cc(OC)ccc2OC)cc(C(=O)OC)c1,> 79 µM (inactive)
19,COc1cccc(/C=N/NC(=O)c2oc3nc(-c4ccccc4)cc(-c4ccco4)c3c2N)c1,10.5 µM (inactive)
20,NC(=O)c1cccc(-c2coc3c(C(=O)NCCc4ccccc4)cccc23)c1,13.3 µM (inactive)
